Among the data in patent publication US10399970B2, “Pyrridinobenzodiazepine and benzopyrridodiazecine compounds” (FEMTOGENIX LIMITED, priority 2015, dated 2019) are cytotoxic activity range, IC50 and adverse effects values, retold here.

SMILES strings stand for the structures.

Series [1] relates to cancer cell lines. The settings on record: some cancer cell lines; cited from earlier work.
Series [2] concerns MDA MB231 (triple negative human breast cancer). The series is described as follows: Cytotoxicity analysis by MTT assay. The series is classed as cell-based. The settings on record: MDA-MB-231, 96 hours exposure, read-out: IC50 (nanomolar) MDA MB 231 (Triple negative breast cancer cell line). Here is the method: MDA MB231 (triple negative human breast cancer) was obtained from the American Type Culture Collection. The cell-line was maintained in monolayer culture in 75 cm^2 flasks (TPP, Switzerland) under a humidified 5% CO2 atmosphere at 37° C. The MDA MB231 cell line was maintained in high glucose DMEM (4.5 g\l; Invitrogen), foetal bovine serum (10%, Biosera UK), non-essential amino acids (ix; Invitrogen), L-glutamine (2 mM; Invitrogen) and Penicillin-Streptomycin (1% v/v, Invitrogen). For passaging, cells were washed with PBS (GIBCO 14040, Invitrogen, UK), incubated with trypsine (GIBCO 25300, Invitrogen, UK), and re-seeded into fresh medium. For seeding, cells were counted using a Neubauer haemocytometer (Assistant, Germany) by microscopy (Nikon, USA) on a non-adherent suspension of cells that were washed in PBS, trypsinised, centrifuged at 8° C. at 8000 rpm for 5 min and re-suspended in fresh medium.
The cells were grown in normal cell culture conditions at 37° C. under a 5% CO2 humidified atmosphere using appropriate medium. […] After 96 h of continuous exposure to each compound, the cytotoxicity was determined using the 3-(4,5-Dimethylthiazol-2-yl)-2,5-diphenyltetrazolium bromide (MTT) (Lancaster Synthesis Ltd, UK) colorimetric assay. Absorbance was quantified by spectrophotometry at X=570 nm (Envision Plate Reader, PerkinElmer, USA). […]
In general terms: Formazan colour is commonly taken as a measure of viable cells.

The conditions of series [3]: Phase I clinical evaluation; cited from earlier work.

On to `COC(=O)c1cc(-c2ccc(NC(=O)c3nc(NC(=O)CCCOc4cc5c(cc4OC)C(=O)N4CCC[C@H]4C=N5)cn3C)cc2)cn1C`, for which, in series [1], the cytotoxic activity range entry is given as “femtomolar range”.
A word on the IC50: it is the concentration at which inhibition is half-maximal. On to `COC(=O)c1cc2cc(NC(=O)c3cc(NC(=O)CO[C@@H]4CCN5C(=O)c6cc(OC)c(OC)cc6N=C[C@@H]5C4)cn3C)ccc2s1` [Compound 23, Methyl 5-(4-(2-(((6aS,8R)-2,3-dimethoxy-12-oxo-6a,7,8,9,10,12-hexahydrobenzo[e]pyrido[1,2-a][1,4]diazepin-8-yl)oxy)acetamido)-1-methyl-1H-pyrrole-2-carboxamido)benzo[b]thiophene-2-carboxylate], for which the IC50 in series [2] was determined as 221 nM.
As for `C=C1C[C@H]2C=Nc3cc(OCCCOc4cc5c(cc4OC)C(=O)N4CC(=C)C[C@H]4C=N5)c(OC)cc3C(=O)N2C1`, in series [3], the adverse effects entry was “lower-limb edema and fatigue”.
